Measured values reported in US20240208954A1, “OXADIAZOLE COMPOUND, PREPARATION METHOD THEREFOR, PHARMACEUTICAL COMPOSITION AND USE THEREOF” (SHANGHAI INSTITUTE OF MATERIA MEDICA, CHINESE ACADEMY OF …, priority 2020, published 2024).
“And” between values parts separate entries of the source, which are not always exact repeats. Equal values may be shown once. Read-outs that look alike come from different tables or passages of the source.

Assay: Preliminary assessment of pharmacokinetics in mice
Format: in vivo, CD-1 mice
Procedure: Dosing Regimen 9 CD-1 mice, male, weighing 20-26 g, were randomly divided into 3 groups with 3 mice in each group. The test compounds were administered intragastric, intravenously or intraperitoneally according to the following protocol. The mice were fasted for 12 h before the test and drank water freely. Food was consumed uniformly 2 h after administration. [table] The intragastric administration solution was prepared with DMSO/0.5% HPMC(5/95, v/v) to the final concentration. Intravenous and intraperitoneal administration solution was formulated with DMSO/PEG300/EtOH/NaCl(5/40/5/50, v/v/v). The sample of the administration solution was left (50 μL of the solution was mixed with 50 μL of DMSO before and after the administration, respectively) for test. The drug was given according to the above dose, the time of administration was recorded, and 20 μL of blood was taken from the femoral plexus of mice at the above set time points and placed in heparinized tubes. The blood was immediately centrifuged at 11000 rpm for 5 min. 10 μL of plasma was immediately and accurately sucked into a centrifuge tube prefilled with 100 μL of PK-IS solution (prepared with methanol: acetonitrile (1:1,v/v)), well mixed, and freezed at −20° C. for test.

## CC(C)Oc1ccc(-c2nc(-c3ccc(CN4CC(C(=O)O)C4)c4ccccc34)no2)cc1C#N.Cl [Compound A1, 1-((4-(5-(3-cyano-4-isopropoxyphenyl)-1,2,4-oxadiazol-3-yl)naphthalen-1-yl)methyl) azetidine-3-carboxylic acid hydrochloric acid]
Intraperitoneal injection 20 mg/kg, 0.05 h, individual animals 4-6, 20 mg/kg
  Concentration of A1 Drug in Plasma of Mice: 1105 ng/mL and 473 ng/mL and 715 ng/mL
Intraperitoneal injection 20 mg/kg, 0.25 h, individual animals 4-6, 20 mg/kg
  Concentration of A1 Drug in Plasma of Mice: 827 ng/mL and 1507 ng/mL
Intraperitoneal injection 20 mg/kg, 0.75 h, individual animals 4-6, 20 mg/kg
  Concentration of A1 Drug in Plasma of Mice: 1206 ng/mL and 1534 ng/mL and 3318 ng/mL
Intraperitoneal injection 20 mg/kg, 2.00 h, individual animals 4-6, 20 mg/kg
  Concentration of A1 Drug in Plasma of Mice: 516 ng/mL and 1443 ng/mL and 4405 ng/mL
Intraperitoneal injection 20 mg/kg, 4.00 h, individual animals 4-6, 20 mg/kg
  Concentration of A1 Drug in Plasma of Mice: 376 ng/mL and 201 ng/mL and 535 ng/mL
Intraperitoneal injection 20 mg/kg, 8.00 h, individual animals 4-6, 20 mg/kg
  Concentration of A1 Drug in Plasma of Mice: 273 ng/mL and 78.2 ng/mL and 119 ng/mL
Intraperitoneal injection 20 mg/kg, 24.0 h, individual animals 4-6, 20 mg/kg
  Concentration of A1 Drug in Plasma of Mice: 86.9 ng/mL and 26.5 ng/mL and 35.0 ng/mL
male, CD-1, mouse, plasma, intraperitoneal, 20 mg/kg, title: intraperitoneal 20 mg/kg, 0.25 h, mean, read-out: Concentration of A1 Drug in Plasma of Mice
  concentration at 0.25 h: 1740 ng/mL
male, CD-1, mouse, plasma, intraperitoneal, 20 mg/kg, title: intraperitoneal 20 mg/kg, 0.50 h, mean, read-out: Concentration of A1 Drug in Plasma of Mice
  concentration at 0.5 h: 2160 ng/mL
male, CD-1, mouse, plasma, intraperitoneal, 20 mg/kg, title: intraperitoneal 20 mg/kg, 1.00 h, mean, read-out: Concentration of A1 Drug in Plasma of Mice
  concentration at 1 h: 2600 ng/mL
male, CD-1, mouse, plasma, intraperitoneal, 20 mg/kg, title: intraperitoneal 20 mg/kg, 2.00 h, mean, read-out: Concentration of A1 Drug in Plasma of Mice
  concentration at 2 h: 1180 ng/mL
male, CD-1, mouse, plasma, intraperitoneal, 20 mg/kg, title: intraperitoneal 20 mg/kg, 4.00 h, mean, read-out: Concentration of A1 Drug in Plasma of Mice
  concentration at 4 h: 142 ng/mL
male, CD-1, mouse, plasma, intraperitoneal, 20 mg/kg, title: intraperitoneal 20 mg/kg, 8.00 h, mean, read-out: Concentration of A1 Drug in Plasma of Mice
  concentration at 8 h: 24.6 ng/mL
male, CD-1, mouse, plasma, intraperitoneal, 20 mg/kg, title: intraperitoneal 20 mg/kg, 24.0 h, individual animals 1-3, read-out: Concentration of A1 Drug in Plasma of Mice
  concentration at 24 h: 4.8 ng/mL
male, CD-1, mouse, plasma, intraperitoneal, 20 mg/kg, title: intraperitoneal 20 mg/kg, 24.0 h, mean, read-out: Concentration of A1 Drug in Plasma of Mice
  concentration at 24 h: 4.13 ng/mL
male, CD-1, mouse, plasma, ip, 20 mg/kg, intraperitoneal injection 20 mg/kg, 0.05 h, mean, read-out: Concentration of A1 Drug in Plasma of Mice
  concentration at 0.05 h: 764 ng/mL
male, CD-1, mouse, plasma, ip, 20 mg/kg, intraperitoneal injection 20 mg/kg, 0.25 h, individual animals 4-6, read-out: Concentration of A1 Drug in Plasma of Mice
  concentration at 0.25 h: 1170 ng/mL
male, CD-1, mouse, plasma, ip, 20 mg/kg, intraperitoneal injection 20 mg/kg, 0.25 h, mean, read-out: Concentration of A1 Drug in Plasma of Mice
  concentration at 0.25 h: 1170 ng/mL
male, CD-1, mouse, plasma, ip, 20 mg/kg, intraperitoneal injection 20 mg/kg, 0.75 h, mean, read-out: Concentration of A1 Drug in Plasma of Mice
  concentration at 0.75 h: 2020 ng/mL
male, CD-1, mouse, plasma, ip, 20 mg/kg, intraperitoneal injection 20 mg/kg, 2.00 h, mean, read-out: Concentration of A1 Drug in Plasma of Mice
  concentration at 2 h: 2120 ng/mL
male, CD-1, mouse, plasma, ip, 20 mg/kg, intraperitoneal injection 20 mg/kg, 4.00 h, mean, read-out: Concentration of A1 Drug in Plasma of Mice
  concentration at 4 h: 370 ng/mL
male, CD-1, mouse, plasma, ip, 20 mg/kg, intraperitoneal injection 20 mg/kg, 8.00 h, mean, read-out: Concentration of A1 Drug in Plasma of Mice
  concentration at 8 h: 157 ng/mL
male, CD-1, mouse, plasma, ip, 20 mg/kg, intraperitoneal injection 20 mg/kg, 24.0 h, mean, read-out: Concentration of A1 Drug in Plasma of Mice
  concentration at 24 h: 49.5 ng/mL
male, CD-1, mouse, plasma, po, 2 mg/kg, title: oral 2 mg/kg, 0.05 h, individual animals 4-6, read-out: Concentration of A1 Drug in Plasma of Mice
  concentration at 0.05 h: 1790 ng/mL
male, CD-1, mouse, plasma, po, 2 mg/kg, title: oral 2 mg/kg, 0.05 h, mean, read-out: Concentration of A1 Drug in Plasma of Mice
  concentration at 0.05 h: 1940 ng/mL
male, CD-1, mouse, plasma, po, 2 mg/kg, title: oral 2 mg/kg, 0.25 h, individual animals 4-6, read-out: Concentration of A1 Drug in Plasma of Mice
  concentration at 0.25 h: 1040 ng/mL
male, CD-1, mouse, plasma, po, 2 mg/kg, title: oral 2 mg/kg, 0.25 h, mean, read-out: Concentration of A1 Drug in Plasma of Mice
  concentration at 0.25 h: 878 ng/mL
male, CD-1, mouse, plasma, po, 2 mg/kg, title: oral 2 mg/kg, 0.75 h, individual animals 4-6, read-out: Concentration of A1 Drug in Plasma of Mice
  concentration at 0.75 h: 178 ng/mL
male, CD-1, mouse, plasma, po, 2 mg/kg, title: oral 2 mg/kg, 0.75 h, mean, read-out: Concentration of A1 Drug in Plasma of Mice
  concentration at 0.75 h: 169 ng/mL
male, CD-1, mouse, plasma, po, 2 mg/kg, title: oral 2 mg/kg, 2.00 h, individual animals 4-6, read-out: Concentration of A1 Drug in Plasma of Mice
  concentration at 2 h: 49.2 ng/mL
male, CD-1, mouse, plasma, po, 2 mg/kg, title: oral 2 mg/kg, 2.00 h, mean, read-out: Concentration of A1 Drug in Plasma of Mice
  concentration at 2 h: 49.8 ng/mL
male, CD-1, mouse, plasma, po, 2 mg/kg, title: oral 2 mg/kg, 4.00 h, mean, read-out: Concentration of A1 Drug in Plasma of Mice
  concentration at 4 h: 8.43 ng/mL
male, CD-1, mouse, plasma, po, 2 mg/kg, title: oral 2 mg/kg, 8.00 h, mean, read-out: Concentration of A1 Drug in Plasma of Mice
  concentration at 8 h: 3.97 ng/mL
male, CD-1, mouse, plasma, po, 2 mg/kg, title: oral 2 mg/kg, 24.0 h, individual animals 4-6, read-out: Concentration of A1 Drug in Plasma of Mice
  concentration at 24 h: 0.5 ng/mL
male, CD-1, mouse, plasma, po, 2 mg/kg, title: oral 2 mg/kg, 24.0 h, mean, read-out: Concentration of A1 Drug in Plasma of Mice
  concentration at 24 h: 0.6 ng/mL
title: intraperitoneal 20 mg/kg, 0.25 h, individual animals 1-3
  Concentration of A1 Drug in Plasma of Mice: 1095 ng/mL and 1070 ng/mL and 3041 ng/mL
title: intraperitoneal 20 mg/kg, 0.50 h, individual animals 1-3
  Concentration of A1 Drug in Plasma of Mice: 1574 ng/mL and 1388 ng/mL and 3514 ng/mL
title: intraperitoneal 20 mg/kg, 1.00 h, individual animals 1-3
  Concentration of A1 Drug in Plasma of Mice: 1914 ng/mL and 1843 ng/mL and 4055 ng/mL
title: intraperitoneal 20 mg/kg, 2.00 h, individual animals 1-3
  Concentration of A1 Drug in Plasma of Mice: 571 ng/mL and 1318 ng/mL and 1662 ng/mL
title: intraperitoneal 20 mg/kg, 4.00 h, individual animals 1-3
  Concentration of A1 Drug in Plasma of Mice: 146 ng/mL and 215 ng/mL and 65.0 ng/mL
title: intraperitoneal 20 mg/kg, 8.00 h, individual animals 1-3
  Concentration of A1 Drug in Plasma of Mice: 25.8 ng/mL and 36.4 ng/mL and 11.5 ng/mL
